This note sets out measurements from patent US20250313572A1, “MACROCYCLIC MCL-1 INHIBITORS AND METHODS OF USE” (AbbVie Inc., priority 2017, published 2025).

In test [1] the test system is NCI-H929 human multiple myeloma tumor cell line. Briefly: NCI-H929 cell viability assay (CellTiter-Glo, 24 hours). Format: cell-based. As to conditions: Homo sapiens, NCI-H929, 24 h, read-out: H929 Viability IC50 (μM, 10% FBS), 10% FBS, 24 hours of compound treatment. A general note: Cellular ATP, detected with luciferase, serves as a proxy for viable cell number.
Test [2] concerns the target GST-MCL-1 (Homo sapiens, UniProt Q07820). Briefly: TR-FRET MCL-1 binding assay (competition with probe F-Bak). Summed up: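 Test compounds, 11 three-fold dilutions from 25 μM final, incubated 2 hours at room temperature with GST-MCL-1, F-Bak probe and Tb-anti-GST antibody. TR-FRET read at 340/35 nm excitation with 520/525 and 495/510 nm emission. Run without human serum and with 10% HS.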
In general terms: Time-resolved FRET reads energy transfer from a long-lived donor to a nearby acceptor.

Test [3] concerns AMO-1 xenograft. Briefly: AMO-1 xenograft model of multiple myeloma. Format: in vivo, female SCID/bg mice. To be noted: 25 mg/kg/day, IP/QDx1. Here is the method:
Tumors were size matched at approximately 200 mm^3. […] Tumor volume was estimated two to three times weekly. […] Seven or eight mice were housed per cage. Food and water were available ad libitum.
Tumor growth inhibition is calculated by 100*(1−Tv/Cv) where Tv and Cv are the mean tumor volumes of the treated and control groups, respectively.

Test [4] concerns AMO-1 human multiple myeloma tumor cell line. Briefly: AMO-1 cell viability assay (CellTiter-Glo, 24 hours). To be noted: Homo sapiens, AMO1, 24 h, read-out: AMO-1 Viability IC50 (μM, 10% FBS), 10% FBS, 24 hours of compound treatment. Format: cell-based.
The mark [5] stands for this setting: MCL-1 Binding Ki (nM, 10% HS), in the presence of 10% HS (human serum).
[6] abbreviates: without HS, read-out: MCL-1 Binding Ki.

The term Ki denotes a measure of affinity in units of concentration, obtained from inhibition or displacement.

Like-named read-outs stand apart in the source and are kept apart here. Marks after values point to notes of the source that are not given here. Bounds are passed on as bounds.

GST-MCL-1, sequence (Q07820 whole entry): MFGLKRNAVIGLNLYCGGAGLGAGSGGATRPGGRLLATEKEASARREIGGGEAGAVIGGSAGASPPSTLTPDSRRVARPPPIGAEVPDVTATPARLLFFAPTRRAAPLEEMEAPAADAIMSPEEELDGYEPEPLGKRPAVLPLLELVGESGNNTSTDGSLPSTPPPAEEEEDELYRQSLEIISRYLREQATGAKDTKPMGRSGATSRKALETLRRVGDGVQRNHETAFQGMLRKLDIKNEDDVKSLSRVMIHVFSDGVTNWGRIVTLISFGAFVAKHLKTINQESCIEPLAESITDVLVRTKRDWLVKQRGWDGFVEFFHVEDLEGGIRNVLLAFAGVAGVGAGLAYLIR

For `COCCOCCOCCOCCN1CCN(C[C@@H]2COc3ccc(OCc4ccnc(-c5ccccc5OC)n4)c(c3)C[C@H](C(=O)O)Oc3ncnc4sc(-c5ccc(F)cc5)c(c34)-c3ccc(c(Cl)c3C)O2)CC1` (atropisomer, axis not shown) [Example 4, (7R,16R,21S)-19-chloro-1-(4-fluorophenyl)-10-{[2-(2-methoxyphenyl)pyrimidin-4-yl]methoxy}-20-methyl-16-{[4-(2,5,8,11-tetraoxatridecan-13-yl)piperazin-1-yl]methyl}-7,8,15,16-tetrahydro-18,21-etheno-13,9-(metheno)-6,14,17-trioxa-2-thia-3,5-diazacyclononadeca[1,2,3-cd]indene-7-carboxylic Acid], the IC50 in test [1] was determined as 0.011 µM; in test [4] it was 0.007 µM. In addition, the inhibitory constant (Ki) in test [2] (setting [5]) amounted to 0.052 nM; in test [2] (setting [6]) it was 0.007 nM. Besides, the “TGD (%)” value in test [3] is recorded as 33* %. Further, the “TGImax (%)” value in test [3] was 54* %.

In the case of `COCCOCCOCCN1CCN(C[C@@H]2COc3ccc(OCc4ccnc(-c5ccccc5OC)n4)c(c3)C[C@H](C(=O)O)Oc3ncnc4sc(-c5ccc(F)cc5)c(c34)-c3ccc(c(Cl)c3C)O2)CC1` (atropisomer, axis not shown) [Example 5, (7R,16R,21S)-19-chloro-1-(4-fluorophenyl)-16-[(4-{2-[2-(2-methoxyethoxy)ethoxy]ethyl}piperazin-1-yl)methyl]-10-{[2-(2-methoxyphenyl)pyrimidin-4-yl]methoxy}-20-methyl-7,8,15,16-tetrahydro-18,21-etheno-13,9-(metheno)-6,14,17-trioxa-2-thia-3,5-diazacyclononadeca[1,2,3-cd]indene-7-carboxylic Acid], the values for the IC50 in test [1] and in test [4] were 0.008 µM and 0.004 µM, respectively. In addition, the Ki in test [2] (setting [5]) was determined as 0.057 nM; in test [2] (setting [6]), 0.009 nM. For the same compound, the “TGD (%)” value in test [3] is 17* %. In addition, the “TGImax (%)” value in test [3] is on record as 55* %.

For `COCCOCCOCCOCCOCCOCC1(C)CC=C(c2nccc(COc3ccc4cc3C[C@H](C(=O)O)Oc3ncnc5sc(-c6ccc(F)cc6)c(c35)-c3c(C)c(Cl)c(c(Cl)c3C)O[C@H](CN3CCN(C)CC3)CO4)n2)CC1` (single isomer, unassigned) [Example 84, (7R,16R)-19,23-dichloro-1-(4-fluorophenyl)-10-({2-[(4R*)-4-(2,5,8,11,14,17-hexaoxaoctadecan-1-yl)-4-methylcyclohex-1-en-1-yl]pyrimidin-4-yl}methoxy)-20,22-dimethyl-16-[(4-methylpiperazin-1-yl)methyl]-7,8,15,16-tetrahydro-18,21-etheno-13,9-(metheno)-6,14,17-trioxa-2-thia-3,5-diazacyclononadeca[1,2,3-cd]indene-7-carboxylic Acid], the IC50 in test [1] is 0.000528 µM; in test [4], 0.000175 µM. The values for the inhibitory constant (Ki) in test [2] (setting [5]) and in test [2] (setting [6]) were 0.232 nM and 0.033 nM, respectively. Further, the “TGD (%)” value in test [3] is recorded as 33* %. Moreover, the “TGImax (%)” value in test [3] is reported as 71* %.

For the compound `Cc1c(Cl)c2c(Cl)c(C)c1-c1c(-c3ccc(F)cc3)sc3ncnc(c13)O[C@@H](C(=O)O)Cc1cc(ccc1OCc1ccnc(N3C[C@H]4C[C@@H](C3)[C@H]4O)n1)OC[C@@H](CN1CCN(C)CC1)O2` [Example 167, (7R,16R)-19,23-dichloro-1-(4-fluorophenyl)-10-({2-[(1R,5S,6r)-6-hydroxy-3-azabicyclo[3.1.1]heptan-3-yl]pyrimidin-4-yl}methoxy)-20,22-dimethyl-16-[(4-methylpiperazin-1-yl)methyl]-7,8,15,16-tetrahydro-18,21-etheno-13,9-(metheno)-6,14,17-trioxa-2-thia-3,5-diazacyclononadeca[1,2,3-cd]indene-7-carboxylic Acid], the values for the IC50 in test [1] and in test [4] were 0.00892 µM and 0.002 µM, respectively. Besides, the inhibition constant (Ki) in test [2] (setting [5]) is 0.698 nM; in test [2] (setting [6]), 0.06 nM.

As for `COCCOCCOc1cc(COc2ccc3cc2C[C@H](C(=O)O)Oc2ncnc4sc(-c5ccc(F)cc5)c(c24)-c2c(C)c(Cl)c(c(Cl)c2C)O[C@H](CN2CCN(C)CC2)CO3)nc(-c2ccccc2OC)n1` [Example 169, (7R,16R)-19,23-dichloro-1-(4-fluorophenyl)-10-({6-[2-(2-methoxyethoxy)ethoxy]-2-(2-methoxyphenyl)pyrimidin-4-yl}methoxy)-20,22-dimethyl-16-[(4-methylpiperazin-1-yl)methyl]-7,8,15,16-tetrahydro-18,21-etheno-13,9-(metheno)-6,14,17-trioxa-2-thia-3,5-diazacyclononadeca[1,2,3-cd]indene-7-carboxylic Acid], the IC50 was determined as 0.00115 µM in test [1] and 0.000306 µM in test [4]. The inhibitory constant (Ki) in test [2] (setting [5]) turned out to be 0.631 nM; in test [2] (setting [6]), 0.03 nM.

As for `Cc1c(Cl)c2c(Cl)c(C)c1-c1c(-c3ccc(F)cc3)sc3ncnc(c13)O[C@@H](C(=O)O)Cc1cc(ccc1OCc1ccnc(-c3ccc(OCCN4CC5CCC(C4)O5)cc3)n1)OC[C@@H](CN1CCN(C)CC1)O2` [Example 170, (7R,16R)-19,23-dichloro-1-(4-fluorophenyl)-20,22-dimethyl-16-[(4-methylpiperazin-1-yl)methyl]-10-[(2-{4-[2-(8-oxa-3-azabicyclo[3.2.1]octan-3-yl)ethoxy]phenyl}pyrimidin-4-yl)methoxy]-7,8,15,16-tetrahydro-18,21-etheno-13,9-(metheno)-6,14,17-trioxa-2-thia-3,5-diazacyclononadeca[1,2,3-cd]indene-7-carboxylic Acid], the IC50 in test [1] was 0.00278 µM; in test [4], 0.000646 µM. Further, the inhibition constant Ki in test [2] (setting [5]) worked out at 1.85 nM; in test [2] (setting [6]), 0.042 nM.

Consider `Cc1c(Cl)c2c(Cl)c(C)c1-c1c(-c3ccc(F)cc3)sc3ncnc(c13)O[C@@H](C(=O)O)Cc1cc(ccc1OCc1ccnc(N3CC4CC(C4)C3)n1)OC[C@@H](CN1CCN(C)CC1)O2` [Example 171, (7R,16R)-10-{[2-(3-azabicyclo[3.1.1]heptan-3-yl)pyrimidin-4-yl]methoxy}-19,23-dichloro-1-(4-fluorophenyl)-20,22-dimethyl-16-[(4-methylpiperazin-1-yl)methyl]-7,8,15,16-tetrahydro-18,21-etheno-13,9-(metheno)-6,14,17-trioxa-2-thia-3,5-diazacyclononadeca[1,2,3-cd]indene-7-carboxylic Acid], for which the values for the IC50 in test [1] and in test [4] were 0.00757 µM and 0.00112 µM, respectively. The Ki in test [2] (setting [5]) was 3.98 nM; in test [2] (setting [6]) it was 0.1 nM.

As for `Cc1c(Cl)c2c(Cl)c(C)c1-c1c(-c3ccc(F)cc3)sc3ncnc(c13)O[C@@H](C(=O)O)Cc1cc(ccc1OCc1ccnc(N3C[C@H]4C[C@@H](C3)C4(F)F)n1)OC[C@@H](CN1CCN(C)CC1)O2` [Example 172, (7R,16R)-19,23-dichloro-10-({2-[(1R,5S)-6,6-difluoro-3-azabicyclo[3.1.1]heptan-3-yl]pyrimidin-4-yl}methoxy)-1-(4-fluorophenyl)-20,22-dimethyl-16-[(4-methylpiperazin-1-yl)methyl]-7,8,15,16-tetrahydro-18,21-etheno-13,9-(metheno)-6,14,17-trioxa-2-thia-3,5-diazacyclononadeca[1,2,3-cd]indene-7-carboxylic Acid], the IC50 is 0.00524 µM in test [1] and 0.000966 µM in test [4]. The inhibition constant (Ki) in test [2] (setting [5]) is 2.74 nM; in test [2] (setting [6]) it was 0.141 nM.

Regarding `Cc1c(Cl)c2c(Cl)c(C)c1-c1c(-c3ccc(F)cc3)sc3ncnc(c13)O[C@@H](C(=O)O)Cc1cc(ccc1OCc1ccnc(-c3ccc(OC[C@H]4CN(C)CCCO4)cc3)n1)OC[C@@H](CN1CCN(C)CC1)O2` [Example 175, (7R,16R)-19,23-dichloro-1-(4-fluorophenyl)-20,22-dimethyl-10-{[2-(4-{[(2R)-4-methyl-1,4-oxazepan-2-yl]methoxy}phenyl)pyrimidin-4-yl]methoxy}-16-[(4-methylpiperazin-1-yl)methyl]-7,8,15,16-tetrahydro-18,21-etheno-13,9-(metheno)-6,14,17-trioxa-2-thia-3,5-diazacyclononadeca[1,2,3-cd]indene-7-carboxylic Acid], the figures for the IC50 in test [1] and in test [4] were 0.00573 µM and 0.00164 µM, respectively. Moreover, the values for the Ki in test [2] (setting [5]) and in test [2] (setting [6]) were 0.122 nM and < 0.01 nM, respectively.

For `COCCOCCOCCOc1cncc(COc2ccc3cc2C[C@H](C(=O)O)Oc2ncnc4sc(-c5ccc(F)cc5)c(c24)-c2c(C)c(Cl)c(c(Cl)c2C)O[C@H](CN2CCN(C)CC2)CO3)n1` [Example 176, (7R,16R)-19,23-dichloro-1-(4-fluorophenyl)-10-[(6-{2-[2-(2-methoxyethoxy)ethoxy]ethoxy}pyrazin-2-yl)methoxy]-20,22-dimethyl-16-[(4-methylpiperazin-1-yl)methyl]-7,8,15,16-tetrahydro-18,21-etheno-13,9-(metheno)-6,14,17-trioxa-2-thia-3,5-diazacyclononadeca[1,2,3-cd]indene-7-carboxylic Acid], the IC50 in test [1] was found to be 0.0073 µM; in test [4] it was 0.00386 µM. Also, the inhibition constant Ki came to 0.868 nM in test [2] (setting [5]) and 0.151 nM in test [2] (setting [6]).
